Laboratory results as given in PubChem BioAssay (NCI).
Several values for one entry are separate records, joined by “and”; a condition that tells them apart may be missing. Equal values may be shown once.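 Following 48 hours of exposure in 96-well plates, responses at five concentrations were used to interpolate endpoints linearly. GI50: concentration for 50% inhibition of growth. At the TGI there is no net growth.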

Experiments:
Test in all cases: NCI-60 cell line screen, 48 h
[1] = system: XF 498 CNS
[2] = system: SNB-78 CNS
[3] = system: KM20L2 colon
[4] = system: DMS 273 small cell lung
[5] = system: LXFL 529 NSCLC
[6] = system: DMS 114 small cell lung
[7] = system: HOP-18 NSCLC
[8] = system: RXF-631 renal

SMILES | TGI [1] | TGI [2] | TGI [3] | TGI [4] | TGI [5] | TGI [6] | TGI [7] | GI50 [6] | TGI [8]
CC12CCC3C(CCC4CC(OC(=O)Cc5ccc(N(CCCl)CCCl)cc5)CCC43C)C1CCC(=O)N2 (centres undefined) | 30.8 µM | 40.7 µM | 31.2 µM | 25.6 µM | 30 µM | 25.6 µM | 31.2 µM | – | –
CC(C(=O)N1C(=O)N(C(=O)C(C)C(O)c2ccccc2)C2CCCCC21)C(O)c1ccccc1 (centres undefined) | > 100 µM | > 100 µM | > 100 µM | > 100 µM | > 100 µM | – | – | – | –
CSC(=Nc1ccccc1)N(c1ccccc1)c1nc(=[N+](C)C)ss1 | – | 21.4 µM | 13.7 µM | 2.2 µM | – | 0.46 µM | – | – | –
COc1c(O)c2c3c(c(C)cc(O)c3c1O)C(=O)C(O)(C(C)(C)C(C)=O)C2=O (centres undefined) | > 100 µM | > 100 µM | > 100 µM | > 100 µM | > 100 µM | 28.2 µM and > 100 µM | > 100 µM | 13.3 µM and 55.3 µM | –
COc1ccc(CC2c3c(cc(OC)c(OC)c3OC)CCN2C)cc1OC (centres undefined) | > 100 µM | > 100 µM | > 100 µM | – | > 100 µM | – | > 100 µM | – | –
CC(O)CCCOC(c1ccccc1)(c1ccccc1)c1ccccc1 (centres undefined) | 28.2 µM | 29.3 µM | 22.3 µM | – | 27.9 µM | 26.4 µM | – | – | –
CC(=O)OCC1OC(n2cc(I)c(=O)[nH]c2=O)C(OC(C)=O)C(OC(C)=O)C1OC(C)=O (centres undefined) | > 100 µM | – | > 100 µM | > 100 µM | > 100 µM | > 100 µM | > 100 µM | – | –
CC1=NN(C(=O)CC(=O)Nc2ccccc2F)C(=O)C1N=Nc1ccccc1[N+](=O)[O-] (centres undefined) | > 100 µM | > 100 µM | > 100 µM | > 100 µM | > 100 µM | > 100 µM | – | – | –
CCC1=CC2CN3Cn4c(c(COCc5c6n(c7ccccc57)CN5CC7C=C(CC)C5C6(C(=O)OC)C7)c5ccccc54)C(C(=O)OC)(C2)C13 | > 100 µM | – | > 100 µM | > 100 µM | > 100 µM | > 100 µM | – | – | –
N#CC1=C(c2ccccc2)NNC(c2ccc(Cl)cc2)CC1=O (centres undefined) | 77.1 µM | > 100 µM | 61.2 µM | – | > 100 µM | > 100 µM | > 100 µM | – | –
O=C(CN(c1ccccc1)c1ccccc1)N1c2ccccc2C2C=CC=CC21 (centres undefined) | 53.2 µM | > 58.7 µM | 55.4 µM | > 60.3 µM | 34.6 µM | 23.1 µM | 74.9 µM | – | –
CCN(CC)CCCNC(=O)c1ccc([N+](=O)[O-])cc1O | – | > 100 µM | > 100 µM | > 100 µM | > 100 µM | > 100 µM | – | – | > 100 µM
Nc1nc(N)c(N=O)c(Nc2ccc(Br)cc2)n1 | 65.4 µM | > 100 µM | 95.7 µM | 79.5 µM | > 100 µM | 52.1 µM | > 100 µM | – | –
COc1cc2c(cc1OC)[C@H]1CN3CCC[C@H]3C=C1c1ccc(OC)c(O)c1-2 | – | 0.00049 µM | – | 0.000139 µM | – | 0.00014 µM | 0.000181 µM | – | –
O=C1NCCS(=O)(=O)N[C@@H](CC2=CC=CCC2)C(=O)N2CCCC12 (some centres undefined) | > 100 µM | > 100 µM | > 100 µM | > 100 µM | > 100 µM | > 100 µM | > 100 µM | – | > 100 µM
O=C1Sc2ccccc2C(=O)N2CSCC12 (centres undefined) | > 100 µM | > 100 µM | > 100 µM | > 100 µM | > 100 µM | > 100 µM | > 100 µM | – | –
C=Cc1ccc(C)[n+](C[Si](C)(C)O[Si](C)(C)C[n+]2cc(C=C)ccc2C)c1 | – | > 100 µM | > 100 µM | > 100 µM | > 100 µM | > 100 µM | > 100 µM | – | –
O=c1[nH]cnc(NC2C=C(CO)C(O)C2O)c1[N+](=O)[O-] (centres undefined) | > 100 µM | > 100 µM | > 100 µM | > 66.1 µM | > 100 µM | > 84.7 µM | > 100 µM | – | –
